Read-outs that look alike come from different tables or passages of the source.
Molecular target: human μ-opiate receptor (Homo sapiens, UniProt P35372)
Assay: Affinity for the human μ-opiate receptor ([3H]-naloxone displacement, SPA, CHO-K1 membrane preparation)
Assay type: binding
Details: for inhibition at 1 µM: read-out: μ-Opioid receptor, % inhibition [1 μM]; for Ki: read-out: μ-Opioid receptor, Ki
[1] = 1 μM test substance, inhibition of specific [3H]-naloxone binding

Sequence of human μ-opiate receptor (P35372 whole entry): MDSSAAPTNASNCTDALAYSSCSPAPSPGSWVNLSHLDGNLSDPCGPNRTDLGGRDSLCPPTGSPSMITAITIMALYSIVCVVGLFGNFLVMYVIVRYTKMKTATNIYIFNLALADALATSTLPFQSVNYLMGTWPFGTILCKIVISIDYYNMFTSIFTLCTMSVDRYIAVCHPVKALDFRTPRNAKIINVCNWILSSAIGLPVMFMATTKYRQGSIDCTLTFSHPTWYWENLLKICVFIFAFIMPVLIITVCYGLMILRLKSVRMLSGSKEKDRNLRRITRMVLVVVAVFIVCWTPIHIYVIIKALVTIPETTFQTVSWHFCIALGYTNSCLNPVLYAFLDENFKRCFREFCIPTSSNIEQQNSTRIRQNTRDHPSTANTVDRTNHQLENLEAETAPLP

SMILES | inhibition at 1 µM [%] | Ki [nM] | inhibition at 1 µM [1] [%] | μ-Opioid receptor, % inhibition [1 μM] [%] | μ-Opioid receptor, % inhibition [1 μM] [1] [%]
CCCC(=O)N(c1ccccc1)C1CCC(C(c2ccccc2)N(C)C)CC1 (centres unmarked) [compound 180, N-(4-((dimethylamino)(phenyl)methyl)cyclohexyl)-N-phenylbutyramide] | 90 |  |  |  | 
COc1cccc(C(=O)NCC2CCC(C(c3ccc(Cl)cc3)N(C)C)CC2)c1 (centres unmarked) [compound 393, N-{4-[(4-chloro-phenyl)-dimethylamino-methyl]-cyclohexylmethyl}-3-methoxy-benzamide] | 80 | 44 |  |  | 
CCn1nc(C)c(Br)c1C(=O)NCC1CCC(C(c2ccccc2)N(C)C)CC1 (centres unmarked) [compound 390, 4-bromo-2-ethyl-5-methyl-2H-pyrazole-3-carboxylic acid [4-(dimethylamino-phenyl-methyl)-cyclohexylmethyl]-amide] | 81 |  |  |  | 
CN(C)C(c1ccccc1)C1CCC(CCNC(=O)COCc2ccccc2)CC1 (centres unmarked) [compound 450, 2-benzyloxy-N-{2-[4-(dimethylamino-phenyl-methyl)-cyclohexyl]-ethyl}-acetamide] | 89 | 81 |  |  | 
CN(C)C(CCc1ccccc1)C1CCC(NC(=O)c2ccc(F)c(C(F)(F)F)c2)CC1 (single isomer, unassigned) [compound 210, N-[4-(1-dimethylamino-3-phenyl-propyl)-cyclohexyl]-4-fluoro-3-trifluoromethyl-benzamide] | 92 | 24 |  |  | 
COC(=O)C(Cc1c[nH]c2ccccc12)NC1CCC(C(c2ccccc2)N(C)C)CC1 (single isomer, unassigned) [compound 174, methyl 2-(4-((dimethylamino)(phenyl)methyl)cyclohexylamino)-3-(1H-indol-3-yl)propanoate] |  | 4.9 | 95 |  | 
CN(C)C(c1ccccc1)C1CCC(CCNC(=O)c2ccc(C#N)cc2)CC1 (centres unmarked) [compound 421, 4-cyano-N-{2-[4-(dimethylamino-phenyl-methyl)-cyclohexyl]-ethyl}-benzamide] | 80 | 91 |  |  | 
Cc1cccc(C(=O)NC2CCC(C(CCc3ccccc3)N(C)C)CC2)c1 (centres unmarked) [compound 248, N-[4-(1-dimethylamino-3-phenyl-propyl)-cyclohexyl]-3-methyl-benzamide] | 81 | 88 |  |  | 
Cc1ccc(Oc2ncccc2C(=O)NCC2CCC(C(c3cccs3)N(C)C)CC2)cc1 (centres unmarked) [compound 352, N-[4-(dimethylamino-thiophen-2-yl-methyl)-cyclohexylmethyl]-2-p-tolyloxy-nicotinamide] | 87 |  |  |  | 
CN(C)C(c1ccccc1)C1CCC(CNC(=O)c2cccc(C(F)(F)F)c2)CC1 (single isomer, unassigned) [compound 333, N-[4-(dimethylamino-phenyl-methyl)-cyclohexylmethyl]-3-trifluoromethyl-benzamide] |  | 17 |  | 92 | 
CN(C)C(c1cccs1)C1CCC(NC(=O)c2cccc(C#N)c2)CC1 (centres unmarked) [compound 186, 3-cyano-N-[4-(dimethylamino-thiophen-2-yl-methyl)-cyclohexyl]-benzamide] | 100 | 18 |  |  | 
CN(C)C(c1cccs1)C1CCC(CNC(=O)Cc2ccc(Cl)cc2)CC1 (centres unmarked) [compound 311, 2-(4-chloro-phenyl)-N-[4-(dimethylamino-thiophen-2-yl-methyl)-cyclohexyl-methyl]-acetamide] | 98 | 11 |  |  | 
CN(C)C(c1cccc(F)c1)C1CCC(CNC(=O)c2ccc(F)c(C(F)(F)F)c2)CC1 (centres unmarked) [compound 350, N-{4-[dimethylamino-(3-fluoro-phenyl)-methyl]-cyclohexylmethyl}-4-fluoro-3-trifluoromethyl-benzamide] | 89 | 37 |  |  | 
CN(C)C(c1cccc(F)c1)C1CCC(NC(=O)c2cc(F)cc(F)c2)CC1 (centres unmarked) [compound 204, N-{4-[dimethylamino-(3-fluoro-phenyl)-methyl]-cyclohexyl}-3,5-difluoro-benzamide] | 94 | 18 |  |  | 
Cc1cc(C(=O)NC2CCC(C(c3ccccc3)N(C)C)CC2)no1 (centres unmarked) [compound 282, 5-methyl-isoxazole-3-carboxylic acid [4-(dimethylamino-phenyl-methyl)-cyclohexyl]-amide] | 73 | 110 |  |  | 
CN(C)C(c1ccc(Cl)cc1)C1CCC(CCNC(=O)c2cc(F)cc(F)c2)CC1 (centres unmarked) [compound 434, N-(2-{4-[(4-chloro-phenyl)-dimethylamino-methyl]-cyclohexyl}-ethyl)-3,5-difluoro-benzamide] | 85 | 24 |  |  | 
CN(C)C(c1cccs1)C1CCC(CNC(=O)C(c2ccccc2)c2ccccc2)CC1 (centres unmarked) [compound 297, N-[4-(dimethylamino-thiophen-2-yl-methyl)-cyclohexylmethyl]-2,2-diphenyl-acetamide] | 100 | 4 |  |  | 
CN(C)C(c1cccs1)C1CCC(CCNC(=O)c2ccccc2F)CC1 (centres unmarked) [compound 428, N-{2-[4-(dimethylamino-thiophen-2-yl-methyl)-cyclohexyl]-ethyl}-2-fluoro-benzamide] | 97 | 5.4 |  |  | 

SMILES | inhibition at 1 µM [%] | Ki [nM] | inhibition at 1 µM [1] [%] | μ-Opioid receptor, % inhibition [1 μM] [%] | μ-Opioid receptor, % inhibition [1 μM] [1] [%]
CN(C)C(c1ccccc1)C1CCC(NC(=O)CC(C)(C)C)CC1 (single isomer, unassigned) [compound 228, N-[4-(dimethylamino-phenyl-methyl)-cyclohexyl]-3,3-dimethyl-butyramide] | 87 | 19 |  |  | 
CN(C)C(c1ccccc1)C1CCC(NC(=O)c2cc(C(F)(F)F)ccc2F)CC1 (centres unmarked) [compound 205, N-[4-(dimethylamino-phenyl-methyl)-cyclohexyl]-2-fluoro-5-trifluoromethyl-benzamide] | 94 | 22 |  |  | 
CCCCCC1(O)CCC(C(c2ccc(Cl)cc2)N(C)C)CC1 (centres unmarked) [compound 170, 4-[(4-chloro-phenyl)-dimethylamino-methyl]-1-pentyl-cyclohexanol] |  |  |  |  | 63
CN(C)C(c1ccc(F)cc1)C1CCC(NC(=O)c2cccc(Br)c2)CC1 (centres unmarked) [compound 263, 3-bromo-N-{4-[dimethylamino-(4-fluoro-phenyl)-methyl]-cyclohexyl}-benzamide] | 78 | 28 |  |  | 
Cc1ccccc1C(=O)NCC1CCC(C(c2cccc(F)c2)N(C)C)CC1 (centres unmarked) [compound 384, N-{4-[dimethylamino-(3-fluoro-phenyl)-methyl]-cyclohexylmethyl}-2-methyl-benzamide] | 82 | 38 |  |  | 
CN(C)C(c1cccc(F)c1)C1CCC(CCNC(=O)c2cccc(Cl)c2)CC1 (single isomer, unassigned) [compound 401, 3-chloro-N-(2-{4-[dimethylamino-(3-fluoro-phenyl)-methyl]-cyclohexyl}-ethyl)-benzamide] |  | 11 |  | 97 | 
CN(C)C(c1ccccc1)C1CCC(CNC(=O)c2cccc(Cl)c2)CC1 (centres unmarked) [compound 331, 3-chloro-N-[4-(dimethylamino-phenyl-methyl)-cyclohexylmethyl]-benzamide] | 93 | 11 |  |  | 
CN(C)C(c1ccc(Cl)cc1)C1CCC(O)(c2cc(F)cc(F)c2)CC1 (centres unmarked) [compound 166, 4-[(4-chloro-phenyl)-dimethylamino-methyl]-1-(3,5-difluoro-phenyl)-cyclohexanol] |  |  | 62 |  | 
Cc1oc(-c2ccccc2)cc1C(=O)NCC1CCC(C(c2ccc(Cl)cc2)N(C)C)CC1 (centres unmarked) [compound 330, 2-methyl-5-phenyl-furan-3-carboxylic acid {4-[(4-chloro-phenyl)-dimethylamino-methyl]-cyclohexylmethyl}-amide] | 94 | 39 |  |  | 
Cc1cccc(C(=O)NCC2CCC(C(c3ccccc3)N(C)C)CC2)c1 (centres unmarked) [compound 362, N-[4-(dimethylamino-phenyl-methyl)-cyclohexylmethyl]-3-methyl-benzamide] | 85 | 60 |  |  | 
Cc1cc(C(=O)NC2CCC(C(c3cccs3)N(C)C)CC2)n(C(C)(C)C)n1 (centres unmarked) [compound 201, 2-tert-butyl-5-methyl-2H-pyrazole-3-carboxylic acid [4-(dimethylamino-thiophen-2-yl-methyl)-cyclohexyl]-amide] | 94 | 16 |  |  | 
CN(C)C(c1cccc(F)c1)C1CCC(CNC(=O)c2csc(-c3ccccc3)n2)CC1 (centres unmarked) [compound 365, 2-phenyl-thiazole-4-carboxylic acid {4-[dimethylamino-(3-fluoro-phenyl)-methyl]-cyclohexylmethyl}-amide] | 85 | 74 |  |  | 
COc1c(C(=O)NC2CCC(C(c3cccc(F)c3)N(C)C)CC2)csc1Cl (centres unmarked) [compound 191, 5-chloro-4-methoxy-thiophene-3-carboxylic acid {4-[dimethylamino-(3-fluoro-phenyl)-methyl]-cyclohexyl}-amide] | 99 |  |  |  | 
CN(C)C(c1ccc(Cl)cc1)C1CCC(CNC(=O)c2ccccc2Br)CC1 (centres unmarked) [compound 394, 2-bromo-N-{4-[(4-chloro-phenyl)-dimethylamino-methyl]-cyclohexylmethyl}-benzamide] | 79 | 48 |  |  | 
CN(C)C(c1ccccc1)C1CCC(NC(=O)c2cccc(C#N)c2)CC1 (centres unmarked) [compound 261, 3-cyano-N-[4-(dimethylamino-phenyl-methyl)-cyclohexyl]-benzamide] | 78 | 130 |  |  | 
Cc1ccccc1C(=O)NCCC1CCC(C(c2cccc(F)c2)N(C)C)CC1 (centres unmarked) [compound 420, N-(2-{4-[dimethylamino-(3-fluoro-phenyl)-methyl]-cyclohexyl}-ethyl)-2-methyl-benzamide] | 94 | 16 |  |  | 
Cc1oc(-c2ccccc2)cc1C(=O)NCC1CCC(C(c2cccc(F)c2)N(C)C)CC1 (centres unmarked) [compound 353, 2-methyl-5-phenyl-furan-3-carboxylic acid {4-[dimethylamino-(3-fluoro-phenyl)-methyl]-cyclohexylmethyl}-amide] | 87 | 96 |  |  | 
CN(C)C(c1ccc(Cl)cc1)C1CCC(CNC(=O)Cc2cccs2)CC1 (centres unmarked) [compound 316, N-{4-[(4-chloro-phenyl)-dimethylamino-methyl]-cyclohexylmethyl}-2-thiophen-2-yl-acetamide] | 96 |  |  |  | 

Source: patent publication US8058475B2, “Substituted cyclohexylmethyl compounds” (Gruenenthal GmbH, priority 2005, dated 2011)
